Results taken from paper PMC12441861, “Next-Generation Lipid Prodrugs Orally Deliver Tenofovir via Enhanced Chylomicron Incorporation” (ACS Pharmacology & Translational Science, 2025).
Where two headings read alike, the source gives them in different places.

Experiments:
[1] = Metabolic stability in human liver microsomes; assay type: in vitro ADME; settings: pH 7.4, read-out: Metabolic Stability HLM t1/2
Protocol: Assays employed human liver microsomes (HLMs, 20 mg/mL) from Xenotech. A 10 mM NADPH stock was prepared in deionized H2O, and test compounds were dissolved in 100% MeOH to a final concentration of 10 mM. The stock solutions were diluted to 500 μM in 100 mM potassium phosphate buffer (pH 7.4), keeping the final MeOH concentration below 0.2%. Reaction mixtures were prepared by combining 928 μL phosphate buffer, 55 μL liver microsomes, and the test compound solution to a final concentration of 3 μM. Verapamil was used as a positive control. The reactions were initiated with the addition of 110 μL of 10 mM NADPH. Aliquots were taken in duplicate at 0, 5, 10, 15, and 30 min, quenched with 100 μL of cold MeOH containing 2 μM internal standard (d 5-7-ethoxy coumarin), and centrifuged at 12,000 RCF for 5 min. The supernatants were then transferred to LC-MS vials for analysis. The average of each duplicate was normalized to the 0 min time point, representing 100% remaining (0% metabolism).

[2] = Cytotoxicity, MTT assay; settings: human, TZM-bl cells
Protocol: To measure cytotoxicity, HeLa-derived TZM-bl cells , were treated with serial dilutions of each drug, and viability was assessed after 48 h. Two methods were used: an ATP luminescence assay, which measures cellular ATP levels as an indicator of metabolic activity (compounds 8a–d), and an MTT assay, which evaluates cell viability via mitochondrial enzymatic activity (compounds 15b, 21a, and 21b).
The TZM-bl cell line (BEI Resources, ARP-8129) was used to evaluate both cell viability and HIV pseudovirus infectivity reduction. Cytotoxicity in this cell line was measured via two methods. The first method, an ATP luminescence assay, was used for compounds 15a, 15b, 21a, and 21b as such: 6000 TZM-bl cells per well were seeded in a 96-well plate and incubated at 37 °C with 5% CO2 for 24 h. Compounds were prepared as serial dilutions (final concentrations of 1, 0.2, 0.04, 0.008, and 0.0016 μM) in complete DMEM with DEAE-Dextran at 40 μg/mL to mimic HIV infectivity conditions. Solutions were added to the cells and incubated for another 48 h. Viability was assessed using the Promega Cell Titer Glow (CTG) Assay (cat No. G9242) by adding a 50% PBS-CTG solution to each well and measuring luminescence, which correlates with ATP levels, on an Agilent BioTek Synergy HT reader. Cytotoxicity of compounds 8a–d was determined using a colorimetric assay based the conversion of MTT (3-(4,5-dimethylthiazol-2-yl)-2,5-diphenyltetrazolium bromide) to formazan as described previously. TZM-bl cells were plated into 96-well tissue culture plates 1 day prior to performing the MTT assay. A series of 10 3-fold dilutions of each compound was performed from a starting concentration of 10 mM and each dilution was tested for a reduction in cell viability according to the manufacturer’s instructions (CyQuant MTT Cell Viability Assay, ThermoFisher, V13154). Wells containing TZM-bl cells with media only were used as a control. Briefly, serial dilutions of each test compound were added to the plated TZM-bl cells. At 48 h, the media was removed and replaced with 100 mL of fresh culture medium. 10 mL of 12 mM MTT solution was added to each well and incubated at 37 °C for 4 h. 85 mL of supernatant was then removed from each well and replaced with 50 mL of DMSO. Following a 10 min incubation at 37 °C, the absorbance of each well was determined at 540 nm using a Biotek Synergy Neo2 multimode reader and Gen5 v3.02 software.

[3] = cited from earlier work
[4] = cited from earlier work; remark: listed apart in the source
[5] = system: Caco-2 cell-derived CMs; assay type: in vitro ADME, human; settings: 10 μM test drug, Caco-2 cells
Protocol: [formula] 1 Chylomicron (CM) Isolation and Drug Quantification Methods ^a a (1) Caco-2 cells were grown to confluence. (2) Lipid mix was added to media (final drug concentration of 10 μM), and cells were incubated for 4 h. (3) Cells were washed 3× with PBS. (4) Cells were incubated in fresh media overnight. (5) CM-containing media was collected. (6) Media was combined with a 1.20 g/mL NaCl solution in an ultracentrifugation tube, 500 μL H2O was carefully layered on top, and the mixture was centrifuged at 10,950 RCF for 3 h. (7) The CM-containing upper layer was carefully isolated with a fine-tip pipette. (8) Test drug was then extracted from the CM layer with 70% ACN and quantified using LC-MS/MS.
With the presence of CMs in isolated Caco-2 cell extracts confirmed and reproducibility validated across replicates and different drugs, we were eager to investigate drug incorporation during CM biogenesis in vitro. Accordingly, we added test compound (Figure ) to differentiated Caco-2 cells along with the lipid mix to a final test drug concentration of 10 μM. While 10 μM was selected as a standard concentration for these studies, higher concentrations could allow detection of other compounds with low CM association in future experiments. In either case, CMs secreted by Caco-2 cells can be isolated postincubation, and drug concentrations within CMs can be assessed using highly sensitive LC-MS/MS methodology. Positive (high c Log D) and negative (low c Log D) control compounds were selected to validate this assay. […] Given these properties, we expected CAB to readily package into CMs in vitro. […]. […] This sets the stage for quantitative comparisons of TXL and its functionalized analogs, which are detailed below.
At 14-days postconfluence, Caco-2 cells were incubated in a lipid mixture to induce secretion of CMs. For the lipid solution, oleic acid (50 mg), lecithin (40 mg), and sodium taurocholate (48 mg) were weighted out into an Eppendorf tube, and the volume was brought up to 900 μL with PBS, followed by vigorous vortexing to ensure sample homogeneity. This 100× lipid mixture was then diluted into growth media to achieve the desired concentrations (2 mM oleic acid, 1.36 mM lecithin, 1 mM sodium taurocholate) by adding 500 μL of the lipid mixture to 49.5 mL of media. The lipid-supplemented media was thoroughly mixed and sterilized by filtration using a 250 mL sterile vacuum filter. For the drug-exposed CM experiments, each test compound was dissolved in 2 mM human serum albumin (HAS, Sigma, essentially fatty acid free) in DPBS, then added to 10 mL aliquots of lipid-containing media to achieve a final concentration of 10 μM. Subsequently, lipid-containing media was added to Caco-2 cells and incubated for 4 h at 37 °C. After incubation, cells were washed twice with PBS then incubated for 4, 8, or 20 h at 37 °C in fresh, colorless growth medium. Media was collected into 15 mL falcon tubes and centrifuged at 2000g to remove cell debris. Postcentrifugation, the supernatant was transferred to 50 mL Nalgene Oak Ridge High-Speed PPCO Centrifuge Tubes. Next, to adjust the density for ultracentrifugation, 1.19 g of NaCl in 2 mL of deionized (DI) H2O were added to reach a final volume of 5 mL, corresponding to a density of 1.20 g/mL. This mixture was dissolved by vortexing and balanced by weight. 500 μL of DI H2O was carefully overlaid onto the mixture. Ultracentrifugation was performed for 2 h and 30 min at 10,920 relative centrifugal force (RCF). Immediately after centrifugation, the top 500 μL layer, containing CMs, was carefully collected using a gel-loading pipet tip.
To an aliquot of CM extract was added an equal volume of ACN into 1.5 mL Eppendorf tubes. Tubes were shaken for 1 h at rt then centrifuged at 15,000 RCF to remove debris. The clear supernatant was transferred to a glass vial and concentrated under reduced pressure to yield a dry solid. Sample was then reconstituted in 70% ACN in H2O, filtered and then analyzed. […]

CCCCCCCCCCCCCCCCOC[C@@H](COP(=O)(O)CO[C@H](C)Cn1cnc2c(N)ncnc21)OCc1ccccc1 [8a, Ammonium[(1R)-2-(6-aminopurin-9-yl)-1-methyl-ethoxy]methyl-[(2S)-2-benzyloxy-3-hexadecoxy-propoxy]phosphinate]
half-life at 3 µM [1]: > 2 h | CC50 at 48 h [2]: > 10 µM

CCCCCCCCCCCCCCCCCCOC[C@@H](COP(=O)(O)CO[C@H](C)Cn1cnc2c(N)ncnc21)OCc1ccccc1 [8b, Ammonium[(1R)-2-(6-aminopurin-9-yl)-1-methyl-ethoxy]methyl-[(2S)-2-benzyloxy-3-octadecoxy-propoxy]phosphinate]
half-life at 3 µM [1]: > 2 h | CC50 at 48 h [2]: > 10 µM

CCCCCCCCCCCCCCCCOC[C@H](COP(=O)(O)CO[C@H](C)Cn1cnc2c(N)ncnc21)OCc1ccccc1 [8c, Ammonium[(1R)-2-(6-aminopurin-9-yl)-1-methyl-ethoxy]methyl-[(2R)-2-benzyloxy-3-hexadecoxy-propoxy]phosphinate]
half-life at 3 µM [1]: > 2 h | CC50 at 48 h [2]: > 10 µM

CCCCCCCCCCCCCCCC(=O)OCC(COC(=O)CCCCCCCCCCCCCCC)OC(=O)CC(C)CC(=O)Oc1cc(C)cc(C)c1C(C)(C)CC(=O)Oc1ccc2c3c1O[C@H]1[C@@]4(OC)CC[C@@]5(C[C@@H]4[C@](C)(O)C(C)(C)C)[C@@H](C2)N(CC2CC2)CC[C@]315 (stereo partly shown) [BUP-TML-C5βMe-TG]
oral dose recovered in mesenteric lymph ([3]; within 6 h, ref Quach 2022): 44.7% oral dose recovered in mesenteric lymph within 6 h | Δ Oral Availability (% versus Parent) ([4]; parent Buprenorphine, ref Quach 2022): 83%

CO[C@H]1C(=O)[C@]2(C)[C@@H](OC)C[C@H]3OC[C@@]3(OC(C)=O)[C@H]2[C@H](OC(=O)c2ccccc2)[C@]2(O)C[C@H](OC(=O)[C@H](O)[C@@H](NC(=O)OC(C)(C)C)c3ccccc3)C(C)=C1C2(C)C [CAB, Cabazitaxel, reference compound]
detection of compound in CM extract by LC-MS/MS [5]: presence

CCCCCCCCCCCCCCCCCCCC(=O)OCC(COP(=O)([O-])OCC[N+](C)(C)C)OC(=O)C(CCC)CCC (stereo not shown) [DP-VPA]
orally-dosed drug recovered in mesenteric lymph ([3]; ref Dahan 2008): 60% orally-dosed drug recovered in mesenteric lymph | Δ Oral Availability (% versus Parent) ([4]; parent Valproic Acid, ref Dahan 2008): 9%

CCCCCCCCCCCCCCCC(=O)OCC(COC(=O)CCCCCCCCCCCCCCC)OC(=O)CCCSSCCCC(=O)O[C@@H](C(=O)O[C@H]1C[C@@]2(O)[C@@H](OC(=O)c3ccccc3)[C@@H]3[C@]4(OC(C)=O)CO[C@@H]4C[C@H](O)[C@@]3(C)C(=O)[C@H](O)C(=C1C)C2(C)C)[C@@H](NC(=O)OC(C)(C)C)c1ccccc1 [DTX-S-S-TG]
Evidence of Lymphatic Uptake ([3]; ref Tian 2019): Cycloheximide inhibition reduces lymphatic transport and prodrug bioavailability | Δ Oral Availability (% versus Parent) ([4]; parent Docetaxel, ref Tian 2019): 44%

CN(C)C(=N)N=C(N)N [MET, metformin, reference compound]
detection of compound in CM extract by LC-MS/MS [5]: absence

CCCCCCCCCCC(=O)O[C@H]1CC[C@H]2[C@@H]3CCC4=CC(=O)CC[C@]4(C)[C@H]3CC[C@]12C [Testosterone Undecanoate (TU), Testosterone Undecanoate]
lymphatic transport as share of systemic availability ([3]; oral administration, ref not printed in text (Table 1: Shackleford 2003)): 91.5–99.7% | Δ Oral Availability (% versus Parent) ([4]; parent Testosterone, ref Shackleford 2003): 7%

CCCCCCCCCCCCCCCC(=O)OCC(COC(=O)CCCCCCCCCCCCCCC)OC(=O)CC(C)CC(=O)OCOC1CCC2C3CCC4=CC(=O)CCC4(C)C3CCC12C (stereo not shown) [Testosterone-ASI-C5-βMe-TG]
orally-dosed drug recovered in mesenteric lymph ([3]; ref Hu 2016): 28% orally-dosed drug recovered in mesenteric lymph (0% for parent) | Δ Oral Availability (% versus Parent) ([4]; parent Testosterone, ref Hu 2016): 90%

C[C@]12CC[C@H]3[C@@H](CCC4=CC(=O)CC[C@@]43C)[C@@H]1CC[C@@H]2O [Testosterone]
orally-dosed drug recovered in mesenteric lymph ([3]; in vivo, po): 28% orally-dosed drug recovered in mesenteric lymph (0% for parent)
